From PubChem BioAssay (NCI)
“And” between values parts separate entries of the source, which are not always exact repeats. Equal values may be shown once.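 All cell lines were grown in 96-well plates and treated with compound for 48 hours. GI50: concentration for 50% inhibition of growth. TGI: total growth inhibition.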

Columns and labels:
Test in all cases: NCI anticancer screen, dose series, 48 h
[1] = test system: LXFL 529 NSCLC
[2] = test system: XF 498 CNS
[3] = test system: DLD-1 colon
[4] = test system: M19-MEL melanoma
[5] = test system: SNB-78 CNS
[6] = test system: RXF-631 renal
[7] = test system: MDA-N

For CC(=O)O[C@H]1CC[C@@]2(C)C(=C/C(=N\[N+](=O)[O-])[C@H]3C4CCC([C@H](C)CCCC(C)C)[C@@]4(C)CCC32)C1 (some centres not stated), the TGI [1] was over 100 µM, the TGI [2] was over 100 µM and the TGI [3] was over 100 µM. For the same compound, the TGI [4] was over 100 µM.
COC(=O)C1C(/C=C/c2ccoc2)ON2CCC[C@@H]12 (some centres not stated) showed a TGI [1] of over 100 µM, a TGI [5] of over 100 µM and a TGI [3] of over 100 µM. For the same compound, the TGI [4] was over 100 µM.
For NC(=O)N/N=C(\CCC(=O)N(Cc1ccccc1)Cc1ccccc1)CC(=O)c1ccc(F)cc1, the TGI [1] was over 100 µM, the TGI [5] was over 100 µM and the TGI [3] was over 100 µM. The TGI [6] was over 100 µM and the TGI [4] was over 100 µM.
CC(=O)O/N=C/c1cc2c(cc1Br)OCO2 was tested, and the TGI [1] was over 349 µM, the TGI [2] was over 349 µM and the TGI [3] was over 349 µM. It also gave a TGI [4] of over 349 µM.
Compound Cc1cc(Cl)ccc1NC(=O)C(=O)Cc1occc(=O)c1O has a TGI [1] of over 100 µM, a TGI [5] of over 100 µM and a TGI [2] of over 100 µM. For the same compound, the TGI [3] was over 100 µM, the TGI [6] was over 100 µM and the TGI [4] was over 100 µM.
For Nc1ccc(C2=Nc3ccccc3SC(c3ccccc3O)C2)cc1 (configuration not stated), the TGI [1] was over 100 µM, the TGI [2] was 78.5 µM and the TGI [3] was over 100 µM. The TGI [6] was over 100 µM and the TGI [4] was over 100 µM.
Cc1ccc(Nc2nc(C)c(C(/C=C/c3ccc4c(c3)OCO4)=N/Nc3ccc([N+](=O)[O-])cc3[N+](=O)[O-])s2)c([N+](=O)[O-])c1 showed a TGI [1] of over 100 µM, a TGI [5] of over 100 µM and a TGI [2] of 56.2 µM. It also gave a TGI [3] of over 100 µM, a TGI [6] of over 100 µM and a TGI [4] of over 100 µM.
Work on O=C1/C(=C\c2ccccc2)c2ccccc2N1/N=C\c1ccccc1 yielded a TGI [5] of over 100 µM, a TGI [2] of over 100 µM and a TGI [3] of over 100 µM. For the same compound, the TGI [4] was over 100 µM.
With CCOC(=O)C1Oc2ccc([N+](=O)[O-])cc2C1(C)O (configuration not stated) the TGI [1] was over 100 µM, the TGI [5] was over 100 µM and the TGI [2] was over 100 µM. For the same compound, the TGI [3] was over 100 µM and the TGI [4] was over 100 µM.
For CCN(CC)CCC(=O)O[C@H]1CC[C@H](CC(C)[C@H]2CC(=O)C(C)C=C(C)[C@H](OC(=O)CCN(CC)CC)C(OC)C(=O)[C@@H](C)CC(C)/C=C/C=C/C=C(C)C(OC)CC3CC[C@H](C)[C@](O)(O3)C(=O)C(=O)N3CCCCC3C(=O)O2)CC1OC (some centres not stated), the TGI [1] was 1.74 µM, the TGI [5] was 1.7 µM and the GI50 [7] was 1960 nM. For the same compound, the TGI [7] was 4.38 µM and 2.12 µM and the TGI [3] was 2.62 µM.
Compound COc1ccc(/C(C#N)=C(/N)SCc2ccccc2Cl)cc1 has a TGI [1] of 31.2 µM, a TGI [5] of 64.2 µM and a TGI [2] of 30.3 µM. The TGI [3] was 32.7 µM and the TGI [4] was 40.6 µM.
Compound Cc1ccc([N+](=O)[O-])c2c(NCCC[N+](C)(C)[O-])ccnc12 has a TGI [7] of over 100 µM.
Clc1ccc(/C=C/c2nc(Cl)c(-c3ccc(Cl)cc3)c(Cl)n2)cc1 gave a TGI [7] of over 100 µM.
In the case of O=c1[nH]c2c(c3ccccc13)CCc1ccccc1-2, the TGI [1] is reported as over 100 µM, the TGI [5] is reported as over 100 µM and the TGI [4] is reported as over 100 µM.
For COc1cc2nncc(SCc3ccc(Cl)c(Cl)c3)c2cc1OC, the TGI [1] was over 100 µM, the TGI [5] was over 100 µM and the TGI [2] was 81.3 µM. For the same compound, the TGI [7] was over 100 µM, the TGI [6] was over 100 µM and the TGI [4] was over 100 µM.
CC1(C)N=C(Oc2ccccc2)n2nccc2N1 was tested, and the TGI [1] was over 100 µM, the TGI [2] was over 100 µM and the TGI [3] was over 100 µM. The TGI [4] was over 100 µM.
N#CC(C(=O)CCC(=O)Nc1ccc(Cl)c(Cl)c1)c1ccc(Cl)cc1 (configuration not stated) showed a TGI [1] of over 100 µM, a TGI [5] of over 100 µM and a TGI [3] of over 100 µM. It also gave a TGI [6] of over 100 µM and a TGI [4] of over 100 µM.
NS(=O)(=O)c1ccc(NC(=O)c2cccc3c(Nc4ccc(S(N)(=O)=O)cc4)c4ccccc4nc23)cc1 was tested, and the TGI [1] was 85.9 µM, the TGI [5] was over 100 µM and the TGI [2] was 74.6 µM. For the same compound, the TGI [3] was over 100 µM, the TGI [6] was 11.1 µM and the TGI [4] was over 100 µM.
For COc1ccc(C=C2C(=O)NC(=O)NC2=O)cc1OCc1ccccc1, the GI50 [7] was 14.8 µg/mL and the TGI [7] was 32.7 µg/mL.
O=S(=O)(N/N=C/c1ccc(Cl)cc1Cl)c1ccccc1 showed a TGI [1] of over 100 µM, a TGI [5] of over 100 µM and a TGI [2] of over 100 µM. The TGI [3] was over 100 µM, the TGI [6] was over 100 µM and the TGI [4] was over 100 µM.
NNC(=S)N/N=C(/C(=O)Nc1ccc([N+](=O)[O-])cc1)c1nc2ccc([N+](=O)[O-])cc2[nH]c1=O gave a TGI [5] of over 100 µM, a TGI [2] of over 100 µM and a TGI [3] of over 100 µM. It also gave a TGI [4] of over 100 µM.
O=C1NN=CN2C(=O)CCC12 (configuration not stated) gave a TGI [1] of over 100 µM, a TGI [5] of over 100 µM and a TGI [2] of over 100 µM. For the same compound, the TGI [3] was over 100 µM, the TGI [6] was over 100 µM and the TGI [4] was over 100 µM.
O=C(O)c1cc(=O)c2cc(C(=O)c3cccs3)c(Cl)c(Cl)c2o1 gave a TGI [1] of over 100 µM, a TGI [5] of over 100 µM and a TGI [3] of over 100 µM.
COc1cc2c3cc1Oc1c(OC)c(OC)cc4c1C(Cc1ccc(cc1)Oc1cc(ccc1O)CC3N(C)CC2)N(C)CC4 (configuration not stated) gave a TGI [1] of 27.8 µM, a TGI [5] of 64.6 µM and a TGI [7] of 17 µM. It also gave a TGI [3] of 54.9 µM and a TGI [4] of 24.2 µM.
For COc1ccc(/C=N\O[Si](C)(C)C(C)(C)C)cc1O[Si](C)(C)C(C)(C)C, the TGI [1] was 29.9 µM, the TGI [5] was 36.1 µM and the TGI [2] was 32.7 µM. The TGI [3] was 32.9 µM, the TGI [6] was 37.4 µM and the TGI [4] was 36.5 µM.
COc1ccc(OC)c(/C=N/N=C2\C(=O)Nc3c(Cl)cc(Cl)cc32)c1 gave a TGI [7] of 40.9 µM.
For O=C1NC(c2ccccc2)N=C2Oc3ccccc3C=C12 (configuration not stated), the TGI [7] was 1.12 µM.
For O=C1OC(OC/C(Br)=C(/Br)COC2OC(=O)C(Cl)=C2Cl)C(Cl)=C1Cl (configuration not stated), the TGI [7] was 21.5 µM.
c1ccc2c(CN3CCC(C4CCN(Cc5cccc6ccccc56)CC4)CC3)cccc2c1 was tested, and the TGI [1] was 21.8 µM, the TGI [5] was 73.7 µM and the TGI [2] was 10.4 µM. It also gave a TGI [7] of 25.2 µM, a TGI [3] of 26.8 µM and a TGI [6] of 35.5 µM. It also gave a TGI [4] of 20.7 µM.
Work on O=C(O)C1CC2CC(=O)C1C2 (configuration not stated) yielded a TGI [1] of over 100 µM, a TGI [5] of over 100 µM and a TGI [2] of over 100 µM. It also gave a TGI [3] of over 100 µM, a TGI [6] of over 100 µM and a TGI [4] of over 100 µM.
In the case of O=C(CC(=O)c1ccccc1)C(=O)NC12CC3CC(CC(C3)C1)C2, the TGI [1] is reported as over 100 µM, the TGI [5] is reported as over 100 µM and the TGI [2] is reported as over 100 µM. For the same compound, the TGI [3] was over 70 µM and the TGI [4] was over 100 µM.
Cn1c2ccccc2c2[nH]c3ccccc3c(=O)c21 was tested, and the TGI [7] was over 100 µM.
Work on O=C(CC(=O)C1CCOC1=O)C(=O)Nc1ccc(Cl)cc1 (configuration not stated) yielded a TGI [1] of over 100 µM, a TGI [5] of over 100 µM and a TGI [3] of over 100 µM. The TGI [6] was over 100 µM and the TGI [4] was over 100 µM.
For O=c1[nH]cnc2c1ncn2CCCCO, the TGI [1] was over 100 µM, the TGI [5] was over 100 µM and the TGI [3] was over 100 µM. For the same compound, the TGI [4] was over 100 µM.
Cc1cccc(N=C2NC(=O)C(CC(=O)Nc3ccccc3Cl)S2)c1 (configuration not stated) was tested, and the TGI [1] was over 100 µM, the TGI [5] was over 100 µM and the TGI [2] was over 100 µM. It also gave a TGI [3] of over 100 µM, a TGI [6] of over 100 µM and a TGI [4] of over 100 µM.
In the case of OC1c2ccccc2C2C(O)c3ccccc3C12 (configuration not stated), the TGI [1] is reported as over 100 µM, the TGI [3] is reported as over 100 µM and the TGI [6] is reported as over 100 µM. It also gave a TGI [4] of over 100 µM.
COc1cc(/C=C\c2ccc(Cl)cc2)cc(OC)c1OC was tested, and the TGI [1] was over 95.1 µM, the TGI [2] was 19.1 µM and the TGI [3] was over 100 µM. It also gave a TGI [6] of over 100 µM and a TGI [4] of over 100 µM.
CC(C)=CCc1cc(C2COc3cc4c(c(O)c3C2=O)C=CC(C)(C)O4)c(O)cc1O (configuration not stated) was tested, and the TGI [7] was 27.5 µM.
Work on COC1C(O)C(C)OC(O[C@@H]2C[C@H]3CC[C@@H]4[C@H](CC[C@]5(C)[C@@H](C6=CC(=O)OC6)CC[C@]45O)[C@@]3(C)[C@H](O)C2)C1O (some centres not stated) yielded a TGI [7] of 0.0838 µM.
O=C1NN=C(c2ccc([N+](=O)[O-])cc2)C1n1nc(-c2ccccc2)c2ccccc2c1=O (configuration not stated) was tested, and the TGI [1] was over 100 µM, the TGI [5] was over 100 µM and the TGI [2] was over 100 µM. It also gave a TGI [3] of over 78.7 µM, a TGI [6] of over 100 µM and a TGI [4] of over 100 µM.
CCCCCCCCCCCCCCCCCc1nnc(N)o1 showed a TGI [1] of over 100 µM, a TGI [5] of over 100 µM and a TGI [2] of over 100 µM. It also gave a TGI [3] of over 100 µM, a TGI [6] of over 100 µM and a TGI [4] of over 100 µM.
In the case of CC1=NN(c2ccccc2)C(=O)C1N=Nc1ccc(S(N)(=O)=O)cc1 (configuration not stated), the TGI [7] is reported as over 100 µM.
